{"source": "patent US20140364359A1", "about": "“COMPOSITIONS AND METHODS FOR TREATING CANCER AND INFLAMMATION-RELATED DIESEASES AND CONDITIONS” (priority 2012, published 2014)", "key": {"Metastases": {"tested_on": "Metastases", "assay": "Percent inhibition of growth relative to controls, metastases (Table 4)", "assay_type": "in vivo"}, "[1]": {"conditions": "mice, cited from earlier work"}, "SGC-7901 cells [2]": {"tested_on": "SGC-7901 cells", "assay": "Cell growth assay", "assay_type": "cell-based", "conditions": "Homo sapiens, read-out: inhibition rate of cell growth", "method": "(§1) Human gastric adenocarcinoma cell line SGC-7901 which had been widely used for gastric cancer research was maintained in Hubei Key Laboratory of Tumor Biological Behaviors. Cells were cultured in RPMI-1640 medium supplemented with 10% standard newborn bovine serum in the 5% CO2, saturated humidity, 37° C. incubator (Shel Lab, OR, USA). The culture medium was changed every 2 days.\nSGC-7901 cells at exponential growth phase were planted in 24-well culture plates (Corning, N.Y., USA) at a density of 1×10^5/well. After 48 h, cell numbers were determined by direct cell counting of 3 wells, which was designated as cell number of day 0 (D0). Then the cells were divided into 6 groups, treated with normal saline (100 μl), ADM (0.5 μg/ml), ADM (1.0 μg/ml), PADM (0.9 μg/ml), PADM (1.8 μg/ml), and PADM (3.6 μg/ml), respectively, 3 wells per group. Cells in each group were harvested and counted daily from D2 to D7. The cell growth curve was plotted."}, "SGC-7901 cells [3]": {"tested_on": "SGC-7901 cells", "assay": "Flow cytometric analysis of cell cycle", "assay_type": "cell-based, Human", "conditions": "SGC-7901, 24 h, ADM 0.25 μg/ml, PADM 0.45 μg/ml", "method": "as §1\nTo study the effect of PADM on cell cycle, flow cytometric analysis was performed. SGC-7901 cells were planted in 6-well culture plates (Corning, N.Y., USA), at a density of 2×10^6/well. After 48 h, the cells were divided into 3 groups and treated for 24 h with normal saline (25 μl), ADM (0.25 μg/ml), and PADM (0.45 μg/ml). The cells in each group were harvested to make single-cell suspension, centrifuged at 4° C.×1000 rpm for 10 min, washed twice with phosphate buffered saline (pH=7.4), fixed and stained with PI kit. Cell cycle analysis was performed by flow cytometry with FC 500 (Beckman Coulter, Calif., USA)."}, "Primary tumor": {"tested_on": "Primary tumor", "assay": "Percent inhibition of growth relative to controls, primary tumor (Table 4)", "assay_type": "in vivo"}, "[4]": {"tested_on": "SGC-7901 peritoneal carcinomatosis", "assay": "GC peritoneal carcinomatosis model, therapeutic study", "assay_type": "in vivo, nude mice", "conditions": "ADM 2.0 mg/kg; for lung metastasis / median (range) ePCI score: D40; for lung metastasis / relative ePCI reduction: PADM 7.2 mg/kg i.p x8; for median (range) ePCI score: i.p x8 (D8-D36), PADM 7.2 mg/kg; for relative ePCI reduction: compared with control"}, "[5]": {"conditions": "for peripheral blood parameters (RBC, lymphocytes) versus control: D16, D24, D32 tail vein blood; for liver and kidney function (ALT, AST, BUN, Cr) versus control: D40 serum, 4 major parameters; for body weight: ADM 2.0 mg/kg, PADM 7.2 mg/kg i.p x8 (FIG. 3)", "quoted_text": "After 3 days of adaptation, the animals were used for in vivo study, and the protocols were approved by the Animal Care Committee of Wuhan University.\nSGC-7901 cells (5×10^6/0.2 ml) were subcutaneously inoculated into the back of nude mice (n=4) as donor tumors, and cells (1×10^7/0.4 ml) were i.p inoculated into the peritoneal cavity of nude mice (n=2). After 50 days, tumor nodules and ascites were obtained and tumor tissue homogenate was re-suspended in ascites at a density of 1×10^7/ml (ascites were used as condition medium). These cell suspensions were injected i.p into 29 nude mice, 0.2 ml containing 5×10^6 cells for each animal, on day 0 (D0). On D8, all of the mice were randomized into 3 groups: control group (n=9), ADM group (n=10) and PADM group (n=10). […] D40 was set as the end point of this study. On D16, D24 and D32, 80 μl of blood was obtained from tail veins, anticoagulated by EDTA, and analyzed by Sysmex KX-21 automated hematology analyzer (Sysmex, Kobe, Japan). On D40, all mice were sacrificed, blood was obtained, coagulated and centrifugated at 4° C.×3000 rpm for 10 min to separate serum for biochemical analysis, including ALT (alanine aminotransferase), AST (aspartate aminotransferase), BUN (blood urea nitrogen), Cr (creatinine), CK (creatine kinase), CK-MB (creatine kinase-MB), LDH (lactate dehydrogenase) by Aeroset Clinical Chemistry Analyzer (Abbott Laboratories, IL, USA).\nAt autopsy, major organs including the heart, liver, kidneys, spleen and lungs were examined for any toxic changes. Any organs involved by the tumor and the tumor nodules were formalin-fixed, paraffin-embedded, and cut at 5-μm thickness, for histopathological study after hematoxylin and eosin (H&E) staining"}, "[6]": {"conditions": "37° C., over 6-7 h; cited from earlier work"}, "Cat B": {"target": "Cat B (Homo sapiens, UniProt P07858)", "conditions": "cited from earlier work"}, "Pilot dosage study": {"assay": "Pilot dosage study", "conditions": "nude mice"}, "[7]": {"conditions": "Metastases to Mediastinal lymph nodes"}}, "note": "Entries after “also recorded” stand apart in the source; their conditions may differ. Where two headings read alike, the source gives them in different places."}
{"smiles": "COc1cccc2c1C(=O)c1c(O)c3c(c(O)c1C2=O)C[C@@](O)(C(=O)CO)C[C@@H]3O[C@H]1C[C@H](N)[C@H](O)[C@H](C)O1", "note": "[ADM, doxorubicin, reference compound]", "values": [{"measurement": "Percent inhibition of growth relative to controls", "setting": "Metastases; Metastases to Diaphragm", "result": 19, "unit": "%"}, {"measurement": "Percent inhibition of growth relative to controls", "setting": "Metastases; Metastases to Lung", "result": 36, "unit": "%"}, {"measurement": "Percent inhibition of growth relative to controls", "setting": "Metastases; [7]", "result": 9.1, "unit": "%"}, {"measurement": "Percent inhibition of growth relative to controls", "setting": "Metastases; Metastases to Mesenteric", "result": 9.1, "unit": "%"}, {"measurement": "Percent inhibition of growth relative to controls", "setting": "Metastases; Metastases to Retroperitoneal", "result": 65, "unit": "%"}, {"measurement": "LD50", "setting": "[1]; given intraperitoneally (i.p)", "result": 13.2, "unit": "mg/kg"}, {"measurement": "LD50", "setting": "[1]; given intravenously", "result": 12.0, "unit": "mg/kg"}, {"measurement": "inhibition at 0.5 µg/mL", "setting": "SGC-7901 cells [2]; SGC-7901, D7, 0.5 μg/ml", "result": 80.2, "unit": "%"}, {"measurement": "inhibition at 1 µg/mL", "setting": "SGC-7901 cells [2]; SGC-7901, D7, 1.0 μg/ml", "result": 96.3, "unit": "%"}, {"measurement": "effect on cell cycle / apoptosis", "setting": "SGC-7901 cells [3]", "result": "a prominent apoptosis peak was observed"}, {"measurement": "Percent inhibition of growth relative to controls", "setting": "Primary tumor", "result": 42, "unit": "%"}, {"measurement": "lung metastasis", "setting": "[4]", "result": "no lung metastasis"}, {"measurement": "median (range) ePCI score", "setting": "[4]", "result": "1.5 (0-6)"}, {"measurement": "relative ePCI reduction", "setting": "[4]", "result": 75, "unit": "%"}, {"measurement": "peripheral blood parameters (RBC, lymphocytes) versus control", "setting": "[5]", "result": "significantly lower RBC counts"}, {"measurement": "nude mice died due to severe toxicity", "setting": "[5]; D36, group n=10", "result": 1}, {"measurement": "liver and kidney function (ALT, AST, BUN, Cr) versus control", "setting": "[5]", "result": "3 out of the 4 parameters achieved statistical significance"}, {"measurement": "animals with significant myocardium toxicities (histopathology)", "setting": "[5]; male, BALB/c nude, mouse, in vivo", "result": 7, "unit": "animals"}, {"measurement": "body weight course versus control", "setting": "[5]; nude mice PC model, whole study period to D40", "result": "significant decrease on D24"}, {"measurement": "body weight", "setting": "[5]; nude mice PC model", "result": "18.40 ± 2.97", "unit": "g"}]}
{"smiles": "COc1cccc2c1C(=O)c1c(O)c3c(c(O)c1C2=O)C[C@@](O)(C(=O)CO)C[C@@H]3O[C@H]1C[C@H](NC(=O)OCc2ccc(NC(=O)[C@H](CCCCN)NC(=O)[C@H](Cc3ccccc3)NC(C)=O)cc2)[C@H](O)[C@H](C)O1", "note": "[PADM, Ac-Phe-Lys-PABC-ADM]", "values": [{"measurement": "Ratio, PADM/Dox", "setting": "Metastases; Metastases to Diaphragm", "result": 2.3}, {"measurement": "Ratio, PADM/Dox", "setting": "Metastases; Metastases to Lung", "result": 1.9}, {"measurement": "Ratio, PADM/Dox", "setting": "Metastases; [7]", "result": 5.7}, {"measurement": "Ratio, PADM/Dox", "setting": "Metastases; Metastases to Mesenteric", "result": 3.8}, {"measurement": "Ratio, PADM/Dox", "setting": "Metastases; Metastases to Retroperitoneal", "result": 1.2}, {"measurement": "changes in human plasma (stability)", "setting": "[6]", "result": "no changes were observed; also recorded: stable in human plasma"}, {"measurement": "effect on cell cycle / apoptosis", "setting": "SGC-7901 cells [3]", "result": "did not show significant apoptosis"}, {"measurement": "Ratio, PADM/Dox", "setting": "Primary tumor", "result": 1.05}, {"measurement": "cleavage in Cat B-rich medium", "setting": "Cat B", "result": "rapidly cleaved"}, {"measurement": "lung metastasis", "setting": "[4]", "result": "no lung metastasis"}, {"measurement": "median (range) ePCI score", "setting": "[4]", "result": "1 (1-4)"}, {"measurement": "relative ePCI reduction", "setting": "[4]", "result": 83.3, "unit": "%"}, {"measurement": "peripheral blood parameters (RBC, lymphocytes) versus control", "setting": "[5]", "result": "no differences"}, {"measurement": "animals with significant myocardium toxicities (histopathology)", "setting": "[5]; D40, group n=10", "result": 4, "unit": "animals"}, {"measurement": "liver and kidney function (ALT, AST, BUN, Cr) versus control", "setting": "[5]", "result": "only ALT levels achieved statistical significance"}, {"measurement": "body weight", "setting": "[5]; nude mice PC model", "result": "23.61 ± 0.80", "unit": "g"}, {"measurement": "histopathological study of major organs", "setting": "Pilot dosage study; after 4 administrations", "result": "No obvious damages"}, {"measurement": "body weight changes", "setting": "Pilot dosage study; after the fourth administration, total 96.0 mg/kg group A, 144.0 mg/kg group B", "result": "persistent body weight decreases"}, {"measurement": "body weight changes", "setting": "Pilot dosage study; i.p, first 3 injections, groups A and B", "result": "no obvious changes in body weight"}, {"measurement": "ceiling dosage set for formal in vivo test", "setting": "Pilot dosage study; total dosage", "result": "below 96.0 mg/kg"}]}
